Assay results: patent publication US20170305893A1 (Thomas Helledays Stiftelse for Medicinsk Forskning, priority 2014, published 2017)

tested on: human cancer cell lines; experiment: not given; details: three types of human cancer cell lines; cited from earlier work

Structure (SMILES) | antiproliferative activity
COc1cc(C(=O)n2ccc3c([N+](=O)[O-])c(OC)ccc32)cc(OC)c1OC [(5-methoxy-4-nitroindol-1-yl)(3,4,5-trimethoxy-phenyl)methanone] | does not show any activity

biological target: T1, DCTPP1 (Homo sapiens, UniProt Q9H773); experiment: DCTPP1 inhibition assay (malachite green); format: biochemical; details: 35 nM DCTPP1, 35 μM dCTP, 20 minutes at 22° C.; read-out: IC50
T1 sequence (Q9H773 1-170): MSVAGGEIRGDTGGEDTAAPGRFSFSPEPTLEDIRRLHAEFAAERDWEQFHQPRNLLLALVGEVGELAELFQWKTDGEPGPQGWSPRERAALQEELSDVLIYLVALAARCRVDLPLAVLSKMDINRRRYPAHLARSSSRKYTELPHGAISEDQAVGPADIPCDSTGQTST
Protocol: DCTPP1 catalyzes the hydrolysis of dCTP to dCMP and PPi. By coupling the reaction to pyrophosphatase added in excess PPi is converted to Pi that can be detected by using the malachite green assay reagent. […] DCTPP1 diluted in assay buffer (100 mM Tris-acetate, 100 mM KCl, 10 mM magnesium acetate, 1 mM DTT and 0.005% Tween 20) fortified with E. coli pyrophosphatase (0.2 U/mL) is added to a final concentration of 35 nM. dCTP diluted in assay buffer is added to a final concentration of 35 μM. The reaction mixture is incubated with shaking for 20 minutes at 22° C. To 100 μl reaction mixture is added […] Malachite green assay reagent (0.095% Malachite green in 17% H2SO4, 1.5% Ammonium molybdate, 0.17% Tween 20) added followed by incubation with shaking for 15 minutes at 22° C. The absorbance of the assay plate is read at 630 nm using a SpectraMax plate reader (Molecular Devices).

IC50 [nM] | Structure (SMILES)
47 | Cc1nc2c([N+](=O)[O-])c(Cl)c(Cl)cc2n1Cc1ccc(B(O)O)cc1 [Compound 2.2.44, (4-((5,6-dichloro-2-methyl-4-nitro-1H-benzo[d]imidazol-1-yl)methyl)phenyl)boronic acid]
27 | O=[N+]([O-])c1c(Cl)c(Cl)cc2c1nc(C1CC1)n2Cc1ccc(B(O)O)cc1 [Compound 2.2.45, (4-((5,6-dichloro-2-cyclopropyl-4-nitro-1H-benzo[d]imidazol-1-yl)methyl)phenyl)boronic acid]
30 | Cc1nc2c([N+](=O)[O-])c(Cl)c(Cl)cc2n1Cc1ccc(B2OC(C)(C)C(C)(C)O2)cc1 [Compound 2.2.49, 5,6-dichloro-2-methyl-4-nitro-1-(4-(4,4,5,5-tetramethyl-1,3,2-dioxaborolan-2-yl)benzyl)-1H-benzo[d]imidazole]
44 | Cc1nc2c([N+](=O)[O-])c(Cl)c(Cl)cc2n1Cc1ccc(B2OC(=O)CN(C)CC(=O)O2)cc1 [Compound 2.2.50, 2-(4-((5,6-dichloro-2-methyl-4-nitro-1H-benzo[d]imidazol-1-yl)methyl)phenyl)-6-methyl-1,3,6,2-dioxazaborocane-4,8-dione]
14 | COc1ccc(Cn2c(C(F)(F)F)nc3c([N+](=O)[O-])c(C)c(C)cc32)cc1 [Compound 2.2.58, 1-(4-methoxybenzyl)-5,6-dimethyl-4-nitro-2-(trifluoromethyl)-1H-benzo[d]imidazole]
65 | Cc1cc2c(nc(C)n2Cc2ccc(B(O)O)cc2)c([N+](=O)[O-])c1C [Compound 2.2.60, (4-((2,5,6-trimethyl-4-nitro-1H-benzo[d]imidazol-1-yl)methyl)phenyl)boronic acid]

same assay, conditions: 35 nM DCTPP1, 35 μM dCTP, 20 minutes at 22° C.; read-out: IC50 (nM), class

Structure (SMILES) | IC50 [nM]
Cc1cc2c(nc(C)n2Cc2cc3c(cc2Cl)OCO3)c([N+](=O)[O-])c1C [Compound 2.2.53, 1-((6-chlorobenzo[d][1,3]dioxol-5-yl)methyl)-2,5,6-trimethyl-4-nitro-1H-benzo[d]imidazole] | ≥ 1000
CC1(C)CC(C)(C)c2c1cc1c(cnn1Cc1ccc(B(O)O)cc1)c2[N+](=O)[O-] [Compound 2.2.64] | ≥ 1000
COc1ccc(Cn2c(Cc3ccccc3)nc3cccc([N+](=O)[O-])c32)cc1 [Compound 2.3.1, 2-benzyl-1-(4-methoxybenzyl)-7-nitro-1H-benzo[d]imidazole] | ≥ 1000
COc1ccc(Cn2c(OC)nc3cccc([N+](=O)[O-])c32)cc1 [Compound 2.3.2, 2-methoxy-1-(4-methoxybenzyl)-7-nitro-1H-benzo[d]imidazole] | ≥ 1000
COc1ccc(Cn2c(-c3ccccc3)nc3cccc([N+](=O)[O-])c32)cc1 [Compound 2.3.3, 1-(4-methoxybenzyl)-7-nitro-2-phenyl-1H-benzo[d]imidazole] | ≥ 1000

Second part, the molecule after the results:

IC50 [nM] | Structure (SMILES)
100 to 500 | Cc1nc2c([N+](=O)[O-])c(Cl)c(Cl)cc2n1Cc1ccc(Cl)nc1 [Compound 2.2.43, 5,6-dichloro-1-((6-chloropyridin-3-yl)methyl)-2-methyl-4-nitro-1H-benzo[d]imidazole]
< 100 | O=[N+]([O-])c1c(Cl)c(Cl)cc2c1nc(C1CC1)n2Cc1ccc(B(O)O)cc1 [Compound 2.2.45, (4-((5,6-dichloro-2-cyclopropyl-4-nitro-1H-benzo[d]imidazol-1-yl)methyl)phenyl)boronic acid]
< 100 | Cc1nc2c([N+](=O)[O-])c(Cl)c(Cl)cc2n1Cc1ccccc1B(O)O [Compound 2.2.46, (2-((5,6-dichloro-2-methyl-4-nitro-1H-benzo[d]imidazol-1-yl)methyl)phenyl)boronic acid]
< 100 | Cc1nc2c([N+](=O)[O-])c(Cl)c(Cl)cc2n1Cc1cccc(B(O)O)c1 [Compound 2.2.47, (3-((5,6-dichloro-2-methyl-4-nitro-1H-benzo[d]imidazol-1-yl)methyl)phenyl)boronic acid]
100 to 500 | Cc1nc2c([N+](=O)[O-])c(Cl)c(Cl)cc2n1CCc1ccc(B(O)O)cc1 [Compound 2.2.51, (4-(2-(5,6-dichloro-2-methyl-4-nitro-1H-benzo[d]imidazol-1-yl)ethyl)phenyl)boronic acid]
≥ 1000 | COc1cc(Cn2c(C)nc3c([N+](=O)[O-])c(C)c(C)cc32)cc(OC)c1OC [Compound 2.2.52, 2,5,6-trimethyl-4-nitro-1-(3,4,5-trimethoxybenzyl)-1H-benzo[d]imidazole]
< 100 | COc1ccc(Cn2c(C)nc3c([N+](=O)[O-])c(C)c(C)cc32)cc1 [Compound 2.2.54, 1-(4-methoxybenzyl)-2,5,6-trimethyl-4-nitro-1H-benzo[d]imidazole]
< 100 | Cc1cc2c(nc(C)n2Cc2ccc(Cl)cc2)c([N+](=O)[O-])c1C [Compound 2.2.55, 1-(4-chlorobenzyl)-2,5,6-trimethyl-4-nitro-1H-benzo[d]imidazole]
100 to 500 | Cc1cc2c(nc(C)n2Cc2ccc(F)cc2)c([N+](=O)[O-])c1C [Compound 2.2.56, 1-(4-fluorobenzyl)-2,5,6-trimethyl-4-nitro-1H-benzo[d]imidazole]
100 to 500 | Cc1cc2c(nc(C)n2Cc2ccc(OC(F)(F)F)cc2)c([N+](=O)[O-])c1C [Compound 2.2.57, 2,5,6-trimethyl-4-nitro-1-(4-(trifluoromethoxy)benzyl)-1H-benzo[d]imidazole]
100 to 500 | Cc1cc2c(nc(C)n2C(C)c2ccccc2)c([N+](=O)[O-])c1C (stereo not shown) [Compound 2.2.59, 2,5,6-trimethyl-4-nitro-1-(1-phenylethyl)-1H-benzo[d]imidazole]
< 100 | Cc1cc2c(nc(C(F)(F)F)n2Cc2ccc(B(O)O)cc2)c([N+](=O)[O-])c1C [Compound 2.2.61, (4-((5,6-dimethyl-4-nitro-2-(trifluoromethyl)-1H-benzo[d]imidazol-1-yl)methyl)phenyl)boronic acid]
500 to 1000 | Cc1nc2cc(F)c(F)c([N+](=O)[O-])c2n1Cc1ccc(B(O)O)cc1 [Compound 2.3.4, (4-((5,6-difluoro-2-methyl-7-nitro-1H-benzo[d]imidazol-1-yl)methyl)phenyl)boronic acid]
